Values quoted from earlier work as cited in patent publication US4344438A, “Optical sensor of plasma constituents” (The United States of America as represented by the …, priority 1980, dated 1982).

Biological target: Concanavalin-A (Con-A)
Details: from So and Goldstein, Biochem., Biophys. Acta 165, 398 (1968); read-out: Binding constant K of sugar to Concanavalin-A

Row | Structure (SMILES) | Kd
1 | OC[C@H]1O[C@H](O[C@H]2[C@H](O)[C@@H](O)C(O)O[C@@H]2CO)[C@H](O)[C@@H](O)[C@@H]1O (mixture of isomers) [Maltose] | 350 µM
2 | O=C(CO)[C@@H](O)[C@H](O)[C@H](O)CO [Fructose] | 730 µM
3 | OC[C@H]1O[C@H](OC[C@H]2OC(O)[C@H](O)[C@@H](O)[C@@H]2O)[C@H](O)[C@@H](O)[C@@H]1O (some centres unmarked) [Isomaltose] | 180 µM
4 | OC[C@H]1O[C@@](CO)(O[C@H]2O[C@H](CO)[C@@H](O)[C@H](O)[C@H]2O)[C@@H](O)[C@@H]1O [Sucrose] | 1900 µM
5 | O=[N+]([O-])c1ccc(O[C@H]2O[C@H](CO)[C@@H](O)[C@H](O)[C@@H]2O)cc1 [p-nitrophenol-α-D mannopyranoside] | 29.4 µM
